Laboratory results as given in US20240301494A1, “IDENTIFICATION AND TREATMENT OF PATIENTS WITH EPILEPSY” (GW Research Limited, priority 2020, published 2024).

How the values were obtained:
Format in all cases: in vivo, human
[1] = tested on: patients with treatment-resistant epilepsy (TRE); assay: Single-marker association of genetic variants (DMET plus array) with CBD-related adverse effects, logistic regression
Method: (§1) Baseline data collection included demographics, seizure frequencies/severity, concomitant AEDs, and laboratory data.
CLIA-certified genotyping on the Affymetrix Drug Metabolizing Enzymes and Transporters (DMET) plus array was performed through the Coriell Institute for Medical Research (Camden, NJ) in two batches, with nine samples re-genotyped due to low call rates. The DMET plus array interrogates 1,936 markers (1,931 variants and 5 copy number regions) across ˜230 drug-related genes. Affymetrix DMET Console software® (version 1.3) was used to generate genotype profiles.
Hardy-Weinberg equilibrium was evaluated, and variants p<0.0001 were further evaluated by race.
Treatment group (adult vs paediatric), race, and sex were included as covariates in all analyses.
(§2) A permutation approach was used to account for multiple testing (number of permutations: 1,000), since other methods (e.g. Bonferroni correction) assume independence between markers and likely be overly conservative.

[2] = tested on: patients with treatment-resistant epilepsy (TRE); assay: Multivariable model of CBD response in treatment-resistant epilepsy
Method: Receiver operator curves (ROC) were generated and the area under the curve (AUC) was evaluated to compare clinical, genetic, and combined clinical+genetic models. Epistasis was evaluated in PLINK to identify potential interactions among variants included in the final response model.

[3] = tested on: patients with treatment-resistant epilepsy (TRE); assay: CBD tolerability: adverse events (MedDRA) in open-label Expanded Access Program
Method: (§3) All patients (or caregivers) were instructed to keep seizure diaries, which were verified during in-person visits. At each clinic visit, data on concomitant AEDs, CBD maintenance dose (mg/kg/day), seizure frequencies, and adverse events were collected.
Adverse effects were classified according to the Medical Dictionary for Regulatory Activities (MedDRA, V17.1), and those that differed by response status (diarrhoea, sedation, and abnormal liver function tests (LFTs)) were evaluated in the genetic analyses.

[4] = tested on: patients with treatment-resistant epilepsy (TRE); assay: Single-marker association of genetic variants (DMET plus array) with CBD response, logistic regression
Method: as §1
CLIA-certified genotyping on the Affymetrix Drug Metabolizing Enzymes and Transporters (DMET) plus array was performed through the Coriell Institute for Medical Research (Camden, NJ) in two batches, with nine samples re-genotyped due to low call rates. The DMET plus array interrogates 1,936 markers (1,931 variants and 5 copy number regions) across ˜230 drug-related genes. Affymetrix DMET Console software® (version 1.3) was used to generate genotype profiles. Of the 1,931 variants, 1,328 were removed due to location on the X-chromosome or a minor allele frequency <0.05.
Hardy-Weinberg equilibrium was evaluated, and variants p<0.0001 were further evaluated by race. Variants in linkage disequilibrium (LD) were removed (n=212; r2=0.5), leaving 396 variants in the analyses.
Relationships between variants and CBD response/tolerability were tested under dominant (AA vs Ab+bb) and recessive (AA+Ab vs bb) models using logistic regression in PLINK. Treatment group (adult vs paediatric), race, and sex were included as covariates in all analyses.
as §2

[5] = tested on: patients with treatment-resistant epilepsy (TRE); assay: CBD response (percent change in seizure frequency) in open-label Expanded Access Program; conditions: for Maintenance seizure frequency, Mean ± SD: per 28 days; for Percent change seizure frequency, Mean ± SD: vs baseline
Source text: as §3

Compound: C=C(C)[C@@H]1CCC(C)=C[C@H]1c1c(O)cc(CCCCC)cc1O [CBD, cannabidiol]
- association of variant with CBD-associated sedation ([1]; ABCB1 rs1045642): decreased sedation
- increased likelihood of abnormal LFTs ([1]; APOA2 rs5085, recessive): 6 fold
- association of variant with CBD-associated sedation ([1]; COMT rs4680 recessive wild-type G alleles): decreased sedation
- increased likelihood of diarrhoea ([1]; CYP2A6 rs28399433): 10 fold
- association of variant with CBD-associated sedation ([1]; CYP2C19 rs3758581): decreased sedation
- increased likelihood of diarrhoea ([1]; CYP39A1 rs7761731): ~9 fold
- increased likelihood of diarrhoea ([1]; FMO6 rs2272797): ~5 fold
- increased odds of abnormal LFTs ([1]; SLC22A2 rs316003, recessive): ~11 fold
- increased odds of abnormal LFTs ([1]; SLC22A5 rs274548, recessive): ~15 fold
- increased odds of abnormal LFTs ([1]; SLC22A11 rs1783811, recessive): ~6 fold
- association of variant with CBD-associated sedation ([1]; TPMT rs2842934): decreased sedation
- association of variant with CBD-associated sedation ([1]; UGT2A1 rs4148304 missense variant): decreased odds of sedation
- association of variant with CBD-associated diarrhoea ([1]; UGT2A1 rs11249454 intron variant): decreased odds of diarrhoea
- OR of CBD response, multivariable model ([2]; ABP1 (AOC1) rs12539): 5.67
- OR of CBD response, multivariable model ([2]; CHST11 rs903247): 5.03
- OR of CBD response, multivariable model ([2]; DPYD rs1801265): 4.50
- OR of CBD response, multivariable model ([2]; FMO2 rs7515157 (recessive)): 0.06
- OR of CBD response, multivariable model ([2]; GSTM5 rs2479390): 0.15
- OR of CBD response, multivariable model ([2]; GSTP1 rs1695 (recessive)): 0.03
- OR of CBD response, multivariable model ([2]; SLC7A7 rs1061040): 5.04
- OR of CBD response, multivariable model ([2]; UGT2B4 rs1966151): 5.02
- OR of CBD response, multivariable model ([2]; predictor: CBD dose (mg/kg/day)): 1.07
- Adverse event Abnormal liver function tests, % ([3]; Non-Responders (N = 49)): (4.1%)
- Adverse event Decreased appetite, % ([3]; Non-Responders (N = 49)): (6.1%)
- Adverse event Depressed mood, % ([3]; Non-Responders (N = 49)): (14.3%)
- Adverse event Diarrhoea, % ([3]; Non-Responders (N = 49)): (44.9%)
- Adverse event Nausea/vomiting, % ([3]; Non-Responders (N = 49)): (10.2%)
- Adverse event Sedation, % ([3]; Non-Responders (N = 49)): (44.9%)
- Weight Change: 10-20% Weight loss, % ([3]; Non-Responders (N = 49)): (24.5%)
- Weight Change: <10% Weight loss, % ([3]; Non-Responders (N = 49)): (53.1%)
- Weight Change: >20% Weight loss, % ([3]; Non-Responders (N = 49)): (6.1%)
- Weight Change: No Change or increase, % ([3]; Non-Responders (N = 49)): (16.3%)
- Adverse event Abnormal liver function tests, % ([3]; Overall (N = 112)): (10.7%)
- Adverse event Decreased appetite, % ([3]; Overall (N = 112)): (10.7%)
- Adverse event Depressed mood, % ([3]; Overall (N = 112)): (10.7%)
- Adverse event Diarrhoea, % ([3]; Overall (N = 112)): (58.9%)
- Adverse event Nausea/vomiting, % ([3]; Overall (N = 112)): (12.5%)
- Adverse event Sedation, % ([3]; Overall (N = 112)): (34.8%)
- Weight Change: 10-20% Weight loss, % ([3]; Overall (N = 112)): (20.5%)
- Weight Change: <10% Weight loss, % ([3]; Overall (N = 112)): (51.8%)
- Weight Change: >20% Weight loss, % ([3]; Overall (N = 112)): (8.0%)
- Weight Change: No Change or increase, % ([3]; Overall (N = 112)): (19.6%)
- Adverse event Abnormal liver function tests, % ([3]; Responders (N = 63)): (15.9%)
- Adverse event Decreased appetite, % ([3]; Responders (N = 63)): (14.3%)
- Adverse event Depressed mood, % ([3]; Responders (N = 63)): (7.9%)
- Adverse event Diarrhoea, % ([3]; Responders (N = 63)): (69.8%)
- Adverse event Nausea/vomiting, % ([3]; Responders (N = 63)): (14.3%)
- Adverse event Sedation, % ([3]; Responders (N = 63)): (27.0%)
- Weight Change: 10-20% Weight loss, % ([3]; Responders (N = 63)): (17.5%)
- Weight Change: <10% Weight loss, % ([3]; Responders (N = 63)): (50.8%)
- Weight Change: >20% Weight loss, % ([3]; Responders (N = 63)): (9.5%)
- Weight Change: No Change or increase, % ([3]; Responders (N = 63)): (22.2%)
- increased likelihood of response ([4]; AOX1 rs6729738, recessive): 6 fold
- increased odds of response ([4]; CHST11 rs903247): 4 fold
- decreased likelihood of response ([4]; GSTM5 rs2479390): 72%
- decreased likelihood of response ([4]; GSTP1 rs1695 (recessive)): 87%
- increased likelihood of response ([4]; SULT1A2 rs1059491 (recessive)): 17 fold
- increased odds of response ([4]; UGT2B4 rs1966151): 4 fold
- Therapeutic response (≥50% reduction), share of patients ([5]; 112 genotyped TRE patients): 56.3%
- Maintenance seizure frequency, Median ([5]; Non-Responders (N = 49)): 14.73
- Percent change seizure frequency, Median ([5]; Non-Responders (N = 49)): −14.3%
- Maintenance seizure frequency, Mean ± SD ([5]; Non-Responders (N = 49)): 108.52 ± 327.05
- Percent change seizure frequency, Mean ± SD ([5]; Non-Responders (N = 49)): 5.65 ± 59.13%
- Maintenance seizure frequency, Median ([5]; Overall (N = 112)): 7.76
- Percent change seizure frequency, Median ([5]; Overall (N = 112)): −53.9%
- Maintenance seizure frequency, Mean ± SD ([5]; Overall (N = 112)): 58.54 ± 222.27
- Percent change seizure frequency, Mean ± SD ([5]; Overall (N = 112)): −42.08 ± 58.76%
- Maintenance seizure frequency, Median ([5]; Responders (N = 63)): 4.50
- Percent change seizure frequency, Median ([5]; Responders (N = 63)): −82%
- Maintenance seizure frequency, Mean ± SD ([5]; Responders (N = 63)): 19.65 ± 46.09
- Percent change seizure frequency, Mean ± SD ([5]; Responders (N = 63)): −79.20 ± 16.58%
- Therapeutic response (≥50% reduction), number of patients ([5]; of 112 patients): 63
